We go through five compounds from patent US10463048B2, “Plant disease control composition and plant disease control method” (SUMITOMO CHEMICAL COMPANY, LIMITED, priority 2015, dated 2019).

Holding throughout (format): in vivo
What all share (settings): 20 days after

For experiment [1], the system named is damping-off fungus (Rhizoctonia solani). In words: Test Example 21: corn seed treatment, damping-off pot test. As to the method: A chemical liquid wherein penflufen is dissolved in acetone/Tween 20 (weight ratio=95:5) and a chemical liquid wherein fluxapyroxad is dissolved in acetone/Tween 20 (weight ratio=95:5) were prepared independently. In a rotary seed treatment machine (trade name: HEGE11, manufactured by WINTERSTEIGER), corn seeds (variety: yellow dent corn) were treated by smearing treatment using one of these chemical liquid and the flowable formulation of the present bacterial strain obtained in Formulation Example 13, so that the corn seeds retain the present bacterial strain and/or the compound in the amount shown in Table 6.
Cultivation was carried out in a greenhouse under irrigation (“treated compartment”). The plants were investigated 20 days after for the number of diseased plants, and the disease incidence was calculated by the following “Equation 1”. Similar procedures were conducted using untreated corn seeds, instead of the treated corn seeds, as described above for the treated compartment (“untreated compartment”). The plants were investigated 20 days after for the number of diseased plants, and the disease incidence was calculated by the following “Equation 1”. The control value of the treated compartment was calculated by the following equation “Equation 2”, based on the disease incidences of the treated compartment and the untreated compartment. Disease incidence (%)=100×(number of diseased plant/total number of seeded seeds): Equation 1 Control value (%)=100×[(disease incidence in untreated compartment−disease incidence in treated compartment)/disease incidence in untreated compartment]: Equation 2
(§1) If the effect by the combination of two active ingredients is greater than that of the estimated value E, which is calculated by the Colby's equation as follows, the effect is regarded as synergistic. E=X+Y−X·Y/100 wherein, E=Control value when using the mixture of the active ingredients A and B at the concentrations m and n (amount of the active ingredient), respectively. X=Control value when using the active ingredient A at the concentration m (amount of the active ingredient). Y=Control value when using the active ingredient B at the concentration n (amount of the active ingredient).

The test system of experiment [2] is phytopathogenic Fusarium (Fusarium sp.). The experiment is described as follows: Test Example 22: soybean seed treatment, Fusarium pot test. As to the method: If the effect by the combination of two active ingredients is greater than that of the estimated value E, which is calculated by the Colby's equation as follows, the effect is regarded as synergistic. E=X+Y−X·Y/100 wherein, E=Control value when using the mixture of the active ingredients A and B at the concentrations m and n (amount of the active ingredient), respectively. X=Control value when using the active ingredient A at the concentration m (amount of the active ingredient). Y=Control value when using the active ingredient B at the concentration n (amount of the active ingredient). […]
Cultivation was carried out in a greenhouse under irrigation (“treated compartment”). The plants were investigated 20 days after for the number of diseased plants, and the disease incidence was calculated by the following “Equation 1”. […] The plants were investigated 20 days after for the number of diseased plants, and the disease incidence was calculated by the following “Equation 1”. The control value of the treated compartment was calculated by the following equation “Equation 2”, based on the disease incidences of the treated compartment and the untreated compartment. […]

The test system is the same in experiment [3]. In words: Test Example 23: soybean seed treatment, Fusarium pot test. As to the method:
as §1
Boscalid was dissolved in acetone/Tween 20 (weight ratio=95:5) to prepare a chemical liquid. In a rotary seed treatment machine (trade name: HEGE11, manufactured by WINTERSTEIGER), soybean seeds (variety:“Hatayutaka”) were treated by smearing treatment using the chemical liquid and the flowable formulation of the present bacterial strain obtained in Formulation Example 13 and sedaxane flowable formulation (43.7% flowable formulation, trade name: Vibrance, Syngenta Crop Protection LLC), so that the soybean seeds retain the bacteria, sedaxane and boscalid in the amount shown in Table 8.
Cultivation was carried out in a greenhouse under irrigation (“treated compartment”). The plants were investigated 20 days after for the number of diseased plants, and the disease incidence was calculated by the following “Equation 1”. Also, similar procedures were conducted using untreated soybean seeds, instead of the treated soybean seeds, as described above for the treated compartment (“untreated compartment”).
The plants were investigated 20 days after for the number of diseased plants, and the disease incidence was calculated by the following “Equation 1”. The control value of the treated compartment was calculated by the following equation “Equation 2”, based on the disease incidences of the treated compartment and the untreated compartment. Disease incidence (%)=100×(number of diseased plant/total number of seeded seeds): Equation 1 Control value (%)=100×[(disease incidence in untreated compartment−disease incidence in treated compartment)/disease incidence in untreated compartment]: Equation 2

[4] abbreviates: corn seeds retaining 0.005 g/Kg seeds of compound alone.
Where [5] appears, read: soybean seeds retaining 0.05 g/Kg seeds of compound alone.

SMILES strings stand for the structures.

On to `Cc1nn(C)c(F)c1C(=O)Nc1ccccc1C(C)CC(C)C` (stereo not shown) [Penflufen, penflufen], for which the “Controlling Effect” value in experiment [1] (setting [4]) was found to be 25%; in experiment [1] (corn seeds retaining 0.01 g/Kg seeds of compound alone), 42%.
As for `O=C(NCCc1ncc(C(F)(F)F)cc1Cl)c1ccccc1C(F)(F)F` [Fluopyram, fluopyram], the “Controlling Effect” value in experiment [2] (soybean seeds retaining 0.025 g/Kg seeds of compound alone) turned out to be 29%; in experiment [2] (setting [5]), 44%.
As for `Cn1cc(C(=O)Nc2ccccc2C2CC2C2CC2)c(C(F)F)n1` (stereo not shown) [Sedaxane, sedaxane], the results for the “Controlling Effect” value in experiment [3] (soybean seeds retaining 0.005 g/Kg seeds of compound alone) and in experiment [3] (soybean seeds retaining 0.01 g/Kg seeds of compound alone) were 32% and 35%, respectively.
For the compound `O=C(Nc1ccccc1-c1ccc(Cl)cc1)c1cccnc1Cl` [Boscalid, boscalid], the results for the “Controlling Effect” value in experiment [3] (setting [5]) and in experiment [3] (soybean seeds retaining 0.1 g/Kg seeds of compound alone) were 23% and 47%, respectively.
As to `Cn1cc(C(=O)Nc2ccccc2-c2cc(F)c(F)c(F)c2)c(C(F)F)n1` [Fluxapyroxad, fluxapyroxad], the results for the “Controlling Effect” value in experiment [1] (corn seeds retaining 0.0025 g/Kg seeds of compound alone) and in experiment [1] (setting [4]) were 31% and 39%, respectively.
